{
  "source": "patent US20220133694A1",
  "about": "“PHARMACEUTICAL USE” (Novartis AG, priority 2015, published 2022)",
  "system": "heart failure patients (NYHA class II-IV) with reduced ejection fraction",
  "settings": "randomized patients",
  "procedure": "Patients enrolled were stratified based on the pre-study level of RAAS inhibition (high/low).\nPatients were stratified based on the level of RAAS inhibition as follows: • High RAAS stratum: Patients receiving >160 mg of valsartan or >10 mg total daily dose of enalapril, or equivalent doses of other ARBs/ACEls, respectively, at screening • Low RAAS stratum: Patients receiving ≤160 mg of valsartan or ≤10 mg total daily dose of enalapril, or equivalent doses of other ARBs/ACEls, respectively, at screening. This stratum also included patients who were not on an ACEI or an ARB 4 weeks prior to screening (i.e., ACEI/ARB-naive patients)\nPatients who met all the entry criteria and completed the ACEI-free washout period (if required) attended Visit 2 within approximately one week after Visit 1. […] Eligible hospitalized patients also took the study medication while they were still in the hospital and before they were discharged. Patients took the study medication in addition to their background HF therapy, except for ACEIs and ARBs, which were replaced by the study medication.",
  "data": [
    {"substance": "trisodium [3-((1S,3R)-1-biphenyl-4-ylmethyl-3-ethoxycarbonyl-1-butylcarbamoyl) propionate-(S)-3′-methyl-2′-(pentanoyl{2″-(tetrazol-5-ylate)biphenyl-4′-ylmethyl}amino)butyrate]hemipentahydrate [LCZ696]", "values": [
      {"measurement": "most common reasons for dose adjustment/interruption or permanent discontinuation (AEs)", "result": "hypotension, renal dysfunction or hyperkalemia"}
    ]}
  ]
}
